Measurements reported in paper PMC9282638, “A Suite of Activity-Based Probes To Dissect the KLK Activome in Drug-Resistant Prostate Cancer” (Journal of the American Chemical Society, 2021).

Columns and labels:
LNCaP-K14 cells = experiment: Transwell cell migration assay; format: cell-based, human; conditions: 1 μM ABP, 24 h; KLK14 expression induced with Dox, 10 nM DHT
Procedure: Figure 6 Dissecting the KLK activome in LNCaP cells. (A) Structures of fluorescent ABPs 42, 20, and 43 for KLK2, KLK3, and KLK14, respectively. (B) KLK activity profiling by in-gel fluorescence of conditioned media obtained from LNCaP-WT, LNCaP-mK14, and LNCaP-K14 cells following treatment with DHT (10 nM), Dox (100 ng/mL), and the appropriate biotinylated ABP using fluorescent ABPs 20, 42 and 43. See Figure S26 for blot and gel quantification. (C) Assessment of KLK activity inhibition on LNCaP cell migration. LNCaP-K14 cells were cultured in serum-free RPMI media supplemented with 10 nM DHT ± Dox (100 ng/mL) for 24 h. Cells were added to transwell inserts (100 000 cells in 100 μL of serum-free RPMI), and after 4 h the appropriate ABP was added. Cultures were incubated for a further 24 h before the number of migrating cells was quantified. […]
each library member was 50 μM and the total reaction volume was 50 μL. The excitation wavelength was 355 nm, and the emission wavelength was 460 nm. An amount of 1 μL of each HyCoSuL peptide was added into a well in a 96-well plate containing 24 μL of KLK buffer.
Next, 25 μL of the active KLK enzyme was added to each well and substrate hydrolysis was recorded in kinetic mode at RT for at least 10 min. The linear portion of each progress curve was used to calculate relative fluorescence units per second (RFUs-1). […] Specificity was calculated by normalizing RFUs-1 to the highest value, which was set at 100 %. […]
(§1) Determination of kcat/KM: The KLK2 substrate and KLK14 substrate were serially diluted in the appropriate KLK assay buffer and 25 μL was added to the wells of a 96-well plate. Next, 25 μL of KLK2 (1.5 nM) or KLK14 (75 pM) was added to each well containing the substrate and the enzyme-substrate reaction was monitored for at least 10 min. The linear portion of each progress curve was used to calculate relative fluorescence units per second (RFUs-1).
KM, kcat, and kcat/KM parameters were determined by nonlinear regression in GraphPad Prism 5 (GraphPad Software). […]

KLK2 = biological target: T1, KLK2 (Homo sapiens, UniProt P20151); experiment: Determination of kinact/KI, fluorogenic substrate kinetic assay; format: biochemical; conditions: for kinact/KI: mean ± SEM (N = 3)
T1 construct: purchased R&D Systems
T1 sequence (P20151 25-261): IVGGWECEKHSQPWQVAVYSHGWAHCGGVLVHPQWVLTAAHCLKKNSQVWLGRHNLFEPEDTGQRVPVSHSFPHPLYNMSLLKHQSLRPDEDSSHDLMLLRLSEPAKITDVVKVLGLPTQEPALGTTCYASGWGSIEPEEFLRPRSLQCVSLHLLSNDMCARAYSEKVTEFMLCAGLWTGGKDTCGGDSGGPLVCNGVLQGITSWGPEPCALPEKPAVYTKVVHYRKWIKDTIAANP
From the text: 1.1 Chemicals and Reagents
All chemicals and reagents were purchased from commercial suppliers and used without further purification. Rink Amide resin (100-200 mesh) and 2-Chlorotrityl chloride resin (100-200 mesh, 1% DVB) were obtained from Merck. Natural Fmoc-amino acids were obtained from AGTC Bioproducts Ltd. Unnatural Fmoc-amino acids were obtained from Fluorochem, Alfa Aesar, VWR, Merck, Iris Biotech, Bachem or Sigma Aldrich. Culture media, fetal bovine serum, trypsin, antibiotics and chemicals required for differentiation of osteoprogenitor cells were obtained from Sigma Aldrich, Gibco or Invitrogen. Amicon 3 KDa Centrifugal filter units were obtained from Merck. Recombinant human KLK2 and KLK14 were obtained from R&D Systems and activated using the supplier’s protocol. All remaining chemical reagents were obtained from VWR, Sigma Aldrich or Merck. […]
Fluorescent plate-based enzymatic assays were carried out using an Envision 2104 Multilabel Plate Reader (PerkinElmer) operating in kinetic mode for a minimum of 20 min with excitation/emission […]
Specificity […]
was calculated by normalizing RFUs-1 to the highest value, which was set at 100 %.
Calculations were made in GraphPad Prism 5.
as §1
KM, kcat, and kcat/KM parameters were determined by nonlinear regression in GraphPad Prism 5 (GraphPad Software). Each experiment was repeated three times and the results are presented as an average ± SEM.
Determination of kinact/KI: Under pseudo-first order conditions, a fixed amount of KLK2 (1.5 nM) or KLK14 (37 pM) was incubated with peptidyl-DPP analogue at different concentrations in the presence of 5 µM of substrate. The pseudo first-order rate constant, kobs, was calculated for each probe concentration using non-linear regression analysis in GraphPad Prism 5. The obtained values were plotted against probe concentration to afford the apparent second order rate constant kinact(app)/KI. The absolute value of the second order rate constant was then obtained by adjusting for the substrate competition factor (1 + [S]/Km), where S is the concentration of substrate in the assay and KM is the Michaelis Menten constant for that substrate/enzyme reaction.
2.5 Cell Migration Assays
Cell migration: The assay was performed as per the manufacturer’s protocol (https://www.corning.com/catalog/cls/documents/protocols/an_Chemotaxis_protocol.pdf).
Briefly, LNCaP-WT, LNCaP-mK14 and LNCaP-K14 cells were grown to 80% confluency in RPMI media supplemented with 5 % FBS. The media was then aspirated, the cells were washed with 2 mL PBS (3*) and incubated with serum-free RPMI (without phenol red) supplemented with 10 nM DHT ± 100 ng/mL Dox for 24 h. Cells were trypsinized, washed twice with serum-free RPMI and resuspended in serum-free RPMI. 100,000 cells in 100 µL of serum-free RPMI was then added to the transwell inserts placed in a 24-well plate (Corning […]
Figure S15: KLK2 and KLK14 substrates. (A) Structures (B) Optimal assay conditions for […]
S19) inhibitors (C) Michaelis-Menten (K M) and rate (kcat) constants for KLK substrates

KLK14 [1] = biological target: T2, KLK14 (Homo sapiens, UniProt Q9P0G3); experiment: as above; format: biochemical; conditions: for kinact/KI: mean ± SEM (N = 3)
T2 construct: purchased R&D Systems
T2 sequence (Q9P0G3 25-251): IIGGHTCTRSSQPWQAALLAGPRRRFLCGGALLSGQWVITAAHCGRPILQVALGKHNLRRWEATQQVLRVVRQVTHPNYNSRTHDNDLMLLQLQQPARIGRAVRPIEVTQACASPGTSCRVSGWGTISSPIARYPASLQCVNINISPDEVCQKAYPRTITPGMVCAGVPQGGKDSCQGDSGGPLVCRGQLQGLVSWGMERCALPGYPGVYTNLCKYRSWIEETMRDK

KLK14 [2] = biological target: T2, KLK14; experiment: Inhibition of KLK14 after incubation with 50 µM probe (Figure S8); format: biochemical; conditions: 30 minutes
[3] = KLK14 probe optimization series

## CCC(NC(=O)C(CCN)NC(=O)C(Cc1ccc2ccccc2c1)NC(=O)CCCCCNC(=O)CCCCC1SCC2NC(=O)NC21)C(=O)NC(c1ccc(NC(=N)N)cc1)P(=O)(Oc1ccccc1)Oc1ccccc1 (stereo not drawn) [compound 39, 2Nal-Dab-Abu-Arg]
LNCaP-K14 cells
  effect on number of migrating cells: nullified
KLK2; [3]
  kinact/KI: 204 ± 13 M⁻¹ s⁻¹
KLK14 [1]; KLK14 probe optimization series, KLK14 over KLK2
  selectivity (fold-change): 220 fold
KLK14 [1]; [3]
  kinact/KI: 44500 ± 1980 M⁻¹ s⁻¹
KLK14 [1]; relative to compound 32
  fold higher potency toward KLK14: 80 fold

## CCC[C@H](NC(=O)[C@H](CCC(N)=O)NC(=O)[C@H](CC(N)=O)NC(=O)CCCCCNC(=O)CCCC[C@@H]1SC[C@@H]2NC(=O)N[C@@H]21)C(=O)NC(c1ccc(C(N)=O)cc1)P(=O)(Oc1ccccc1)Oc1ccccc1 (some centres unmarked) [compound 20]
LNCaP-K14 cells
  effect on number of migrating cells: no significant effect
KLK14 [2]
  inhibition of KLK14: no inhibition

## CC(C)(C)C(NC(=O)CCCCCNC(=O)CCCCC1SCC2NC(=O)NC21)C(=O)NC(CCN)C(=O)NC(Cc1ccc(O)cc1)C(=O)NC(c1ccc(NC(=N)N)cc1)P(=O)(Oc1ccccc1)Oc1ccccc1 (stereo not drawn) [compound 31, Tle-Dab-Tyr-Arg]
LNCaP-K14 cells
  effect on number of migrating cells: no significant effect
KLK2; KLK2 probe optimization series, KLK2 over KLK14
  selectivity (fold-change): 33 fold
KLK2; KLK2 probe optimization series
  kinact/KI: 3080 ± 87 M⁻¹ s⁻¹
KLK14 [1]; KLK2 probe optimization series
  kinact/KI: 94 ± 7 M⁻¹ s⁻¹
